The target of the assay is FKBP12 (Homo sapiens, UniProt P62942). Description: FKBP12 Rotamase Inhibition Assay. The class given is biochemical. The following applies: for inhibition at 10 µM: read-out: Percent Inhibition at 10 μM (rotamase); for Ki: 4° C., chymotrypsin-coupled, succinyl-Ala-Leu-Pro-Phe-p-nitroanilide substrate, read-out: Ki (apparent Ki for inhibition of rotamase activity).

This passage reports inhibition and Ki results from US6239146A, “Neurotrophic difluoroamide agents” (Bristol-Myers Squibb Company, priority 2000, dated 2001).

The term inhibition denotes the change of the read-out against control, counted positive when it falls.

Sequence of FKBP12 (P62942 whole entry, species assumed): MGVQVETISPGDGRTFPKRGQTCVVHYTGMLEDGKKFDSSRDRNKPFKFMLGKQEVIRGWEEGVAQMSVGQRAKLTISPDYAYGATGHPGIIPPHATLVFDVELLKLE

Regarding `COc1cc(CCCOC(=O)[C@@H]2CCCN2C(=O)C(F)(F)c2cc(OC)c(OC)c(OC)c2)cc(OC)c1OC` [Example 8], the inhibition at 10 µM was 38%.

For the compound `COc1cc(C(F)(F)C(=O)N2CCC[C@H]2C(=O)OCCCc2cccnc2)cc(OC)c1OC` [Example 2], the Ki was found to be 877 nM.

With `COc1cc(C(F)(F)C(=O)N2CCCC[C@H]2C(=O)OC(CCc2ccccc2)c2ccccc2)cc(OC)c1OC` (stereo partly shown) [Example 7], the inhibition at 10 µM was 94%.

Take `COc1cc(C(F)(F)C(=O)N2CCC[C@H]2C(=O)OC(CCCc2ccccc2)CCCc2cccnc2)cc(OC)c1OC` (stereo partly shown) [Example 3]: the Ki was found to be 104 nM and the inhibition at 10 µM amounted to 97%.

`COc1cc(CCCOC(=O)[C@@H]2CCCCN2C(=O)C(F)(F)c2cc(OC)c(OC)c(OC)c2)cc(OC)c1OC` [Example 9]: the Ki worked out at 109 nM and the inhibition at 10 µM came to 99%.

Consider `COc1cc(C(F)(F)C(=O)N2CCCC[C@H]2C(=O)OC(CCCc2ccccc2)CCCc2cccnc2)cc(OC)c1OC` (stereo partly shown) [Example 4], for which the inhibition at 10 µM was 98%.

On to `COc1cc(C(F)(F)C(=O)N2CCC[C@H]2C(=O)OC(CCc2ccccc2)c2ccccc2)cc(OC)c1OC` (stereo partly shown) [Example 6], for which the Ki came out at 83 nM and the inhibition at 10 µM is 100%.

Consider `COc1cc(C(F)(F)C(=O)N2CCC[C@H]2C(=O)OCCCc2ccccc2)cc(OC)c1OC` [Example 1], for which the Ki was 1300 nM and the inhibition at 10 µM was 97%.

Turning to `COc1cc(C(F)(F)C(=O)N2CCC[C@H]2C(=O)OC(C)(C)CCc2ccccc2)cc(OC)c1OC` [Example 5], the inhibition at 10 µM came to 70%.
